Measurements from patent publication US20240246954A1, “COMPOSITIONS AND METHODS FOR INHIBITING KRAS” (TheRas, Inc., priority 2021, published 2024).

Assays:
[1] = molecular target: T1, Avi-KRAS G12D (1-169) GppNHp/RAF1 RBD-3×FLAG (52-151) (Homo sapiens, UniProt P01116, G12D); assay: HTRF Raf1-KRAS G12D-GppNHp disruption assay; type: biochemical; conditions: 1 h incubation
T1 construct: Avi-KRAS G12D (1-169) GppNHp
In short: (§1)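 HTRF read-out (320 nm excitation, 615 nm emission) after two 1 h room-temperature incubations, first with protein mix, then detection reagents. Ten-point dilution series starting at 100 μM; results given as % activity relative to DMSO at 100%.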

[2] = molecular target: T2, Avi-KRAS G12D/Q25A (1-169) GppNHp/3×FLAG-PI3KCA (157-299) (Homo sapiens, UniProt P01116, G12D/Q25A); assay: HTRF PI3KCA-KRAS G12D/Q25A-GppNHp disruption assay; type: biochemical; conditions: 1 h incubation
T2 construct: Avi-KRAS G12D/Q25A (1-169) GppNHp
T2 sequence (P01116 1-169 isoform P01116-2 G12D/Q25A limits assumed): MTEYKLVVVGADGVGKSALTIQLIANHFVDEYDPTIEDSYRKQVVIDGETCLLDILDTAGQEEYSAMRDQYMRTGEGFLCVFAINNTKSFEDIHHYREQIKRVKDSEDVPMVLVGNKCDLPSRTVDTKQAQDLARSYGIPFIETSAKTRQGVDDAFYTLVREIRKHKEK
In short: as §1

T1 sequence (P01116 1-169 isoform P01116-2 G12D limits assumed): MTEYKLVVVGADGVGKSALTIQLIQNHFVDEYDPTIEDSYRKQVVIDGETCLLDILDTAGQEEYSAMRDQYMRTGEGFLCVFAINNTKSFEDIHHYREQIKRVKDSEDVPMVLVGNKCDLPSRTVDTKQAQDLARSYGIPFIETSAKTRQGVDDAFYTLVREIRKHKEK

IC50 [1] | IC50 [2] | SMILES
10 to 30 µM | 10 to 30 µM | CCN(c1nc(OC[C@@H]2CCCN2C)nc2c(F)c(-c3ccc(F)c4sc(N)nc34)c(Cl)cc12)C1CNC1 [Compound 196]
1 to 10 µM | 1 to 10 µM | Nc1nc2c(-c3c(C(F)(F)F)cc4c(N[C@H]5C[C@@H]6CC[C@H]5N6)nc(OCC56CCCN5CCC6)nc4c3F)ccc(F)c2s1 (atropisomer, axis not shown) [Compound 287]
10 to 30 µM | 10 to 30 µM | CN(c1nc(OC[C@@H]2CCCN2CCF)nc2c(F)c(-c3ccc(F)c4sc(N)nc34)c(C(F)(F)F)cc12)C1CNC1 [Compound 166]
1 to 10 µM | 10 to 30 µM | CN1C[C@H](F)C[C@H]1COc1nc(N2CCNCC2)c2cc(C(F)(F)F)c(-c3ccc(F)c4sc(N)nc34)c(F)c2n1 [Compound 140]
10 to 30 µM | 10 to 30 µM | CN(c1nc(OC[C@@H]2CCCN2C)nc2c(F)c(-c3ccc(F)c4sc(N)nc34)c(Cl)cc12)C1CN(C(=O)CN)C1 [Compound 147]
10 to 30 µM | 10 to 30 µM | NC(=O)N1CCN(c2nc(OCC34CCCN3CCC4)nc3c(F)c(-c4ccc(F)c5sc(N)nc45)c(-c4ccoc4)cc23)CC1 [Compound 186]
10 to 30 µM | 10 to 30 µM | CN1CCC[C@H]1COc1nc(N(CCO)C2CNC2)c2cc(Cl)c(-c3ccc(F)c4sc(N)nc34)c(F)c2n1 [Compound 208]
1 to 10 µM | 1 to 10 µM | CN1CCC[C@H]1COc1nc(N2CCNCC2)c2cc(OC(F)(F)F)c(-c3ccc(F)c4sc(N)nc34)c(F)c2n1 [Compound 191]
1 to 10 µM | 1 to 10 µM | CN(c1nc(OCC23CCCN2CCC3)nc2c(F)c(-c3ccc(F)c4sc(N)nc34)c(C(F)(F)F)cc12)C1CC2CC[C@@H](C1)N2 (some centres unmarked) [Compound 268]
10 to 30 µM | 1 to 10 µM | CN1CCC[C@H]1COc1nc(N2CCNCC2)c2cc(CC#N)c(-c3ccc(F)c4sc(N)nc34)c(F)c2n1 [Compound 175, 2-[7-(2-amino-7-fluoro-1,3-benzothiazol-4-yl)-8-fluoro-2-[[(2S)-1-methylpyrrolidin-2-yl]methoxy]-4-piperazin-1-yl-quinazolin-6-yl]acetonitrile]
10 to 30 µM | 1 to 10 µM | CN1CCC[C@H]1COc1nc(N2CCNCC2)c2cc(-c3cccnc3)c(-c3ccc(F)c4sc(N)nc34)c(F)c2n1 [Compound 155, 7-fluoro-4-(8-fluoro-2-(((S)-1-methylpyrrolidin-2-yl)methoxy)-4-(piperazin-1-yl)-6-(pyridin-3-yl)quinazolin-7-yl)benzo[d]thiazol-2-amine]
10 to 30 µM | 10 to 30 µM | CN1CCC[C@H]1COc1nc(N2CCNCC2)c2cc(-c3ccoc3)c(-c3ccc(F)c4sc(N)nc34)c(F)c2n1 [Compound 143, 7-fluoro-4-(8-fluoro-6-(furan-3-yl)-2-(((S)-1-methylpyrrolidin-2-yl)methoxy)-4-(piperazin-1-yl)quinazolin-7-yl)benzo[d]thiazol-2-amine]
10 to 30 µM | 10 to 30 µM | CN(c1nc(OC[C@@H]2C[C@@H](F)CN2C)nc2c(F)c(-c3ccc(F)c4sc(N)nc34)c(-c3ccoc3)cc12)C1CN(C(=O)CN)C1 [Compound 150]
1 to 10 µM | 10 to 30 µM | CN(C)CCNc1nc(OC[C@@H]2CCCN2C)nc2c(F)c(-c3ccc(F)c4sc(N)nc34)c(Cl)cc12 [Compound 75]
10 to 30 µM | 10 to 30 µM | CN1CC(F)(F)C[C@H]1COc1nc(N2CCNCC2)c2cc(C(F)(F)F)c(-c3ccc(F)c4sc(N)nc34)c(F)c2n1 [Compound 160]
1 to 10 µM | 1 to 10 µM | CC(F)(F)c1cc2c(N3CCNCC3)nc(OCC34CCCN3CCC4)nc2c(F)c1-c1ccc(F)c2sc(N)nc12 [Compound 295, 4-(6-(1,1-difluoroethyl)-8-fluoro-4-(piperazin-1-yl)-2-((tetrahydro-1H-pyrrolizin-7a(5H)-yl)methoxy)quinazolin-7-yl)-7-fluorobenzo[d]thiazol-2-amine]
10 to 30 µM | 10 to 30 µM | CN1CCC[C@H]1COc1nc(NCCN)c2cc(Cl)c(-c3cccc4nc(N)cn34)c(F)c2n1 [Compound 93]
0.1 to 1 µM | 1 to 10 µM | Nc1nc2c(-c3c(C(F)(F)F)cc4c(NC5CC6CC[C@H]5N6)nc(OCC56CCCN5CCC6)nc4c3F)ccc(F)c2s1 (some centres unmarked) [Compound 266]

IC50 [1] | IC50 [2] | SMILES
1 to 10 µM | 10 to 30 µM | C[C@H]1CNCCN1c1nc(OC[C@@]23CCCN2C[C@@H](F)C3)nc2c(F)c(-c3ccc(F)c4sc(N)nc34)c(C(F)(F)F)cc12 [Compound 222]
1 to 10 µM | 1 to 10 µM | CN1CCC[C@H]1COc1nc(NC2CCNCC2)c2cc(Cl)c(-c3ccc(F)c4sc(N)nc34)c(F)c2n1 [Compound 91]
10 to 30 µM | 10 to 30 µM | N#CCCN1CCC[C@H]1COc1nc(NC2CNC2)c2cc(Cl)c(-c3ccc(F)c4sc(N)nc34)c(F)c2n1 [Compound 178]
1 to 10 µM | 1 to 10 µM | COc1cc2c(N3CCNCC3)nc(OCC34CCCN3CCC4)nc2c(F)c1-c1ccc(F)c2sc(N)nc12 [Compound 216, 7-fluoro-4-(8-fluoro-6-methoxy-4-(piperazin-1-yl)-2-((tetrahydro-1H-pyrrolizin-7a(5H)-yl)methoxy)quinazolin-7-yl)benzo[d]thiazol-2-amine]
10 to 30 µM | 1 to 10 µM | CN(c1nc(OCC23CCCN2CCC3)nc2c(F)c(-c3ccc(F)c4sc(N)nc34)c(C(F)(F)F)cc12)[C@@H]1CCN(C(N)=O)C1 (atropisomer, axis not shown) [Compound 279]
1 to 10 µM | 10 to 30 µM | CN(c1nc(OCC23CCCN2CCC3)nc2c(F)c(-c3ccc(F)c4sc(N)nc34)c(Cl)cc12)C1CN(C(N)=O)C1 [Compound 182]
1 to 10 µM | 10 to 30 µM | NCC(=O)N1CC[C@@H]2[C@H]1CN2c1nc(OCC23CCCN2CCC3)nc2c(F)c(-c3ccc(F)c4sc(N)nc34)c(-c3ccoc3)cc12 [Compound 153]
1 to 10 µM | 1 to 10 µM | CN1C[C@H](F)C[C@H]1COc1nc(NC2CNC2)c2cc(Cl)c(-c3ccc(F)c4sc(N)nc34)c(F)c2n1 [Compound 106]
10 to 30 µM | 10 to 30 µM | C[C@@H]1CN(c2nc(OC[C@@]34CCCN3C[C@@H](F)C4)nc3c(F)c(-c4ccc(F)c5sc(N)nc45)c(C(F)(F)F)cc23)[C@@H](C)CN1 [Compound 224]
0.1 to 1 µM | 1 to 10 µM | Nc1nc2c(-c3c(C(F)(F)F)cc4c(NC5CC6CC[C@H]5N6)nc(OCC56CCCN5CCC6)nc4c3F)ccc(F)c2s1 (some centres unmarked) [Compound 265]
0.1 to 1 µM | 10 to 30 µM | C[C@@H]1CN(c2nc(OC[C@]34CCCN3C[C@H](F)C4)nc3c(F)c(-c4ccc(F)c5sc(N)nc45)c(C(F)(F)F)cc23)[C@@H](C)CN1 [Compound 214]
1 to 10 µM | 1 to 10 µM | CN1CCC[C@H]1COc1nc(N2CCNCC2)c2cc(C(F)F)c(-c3ccc(F)c4sc(N)nc34)c(F)c2n1 [Compound 217, 4-(6-(difluoromethyl)-8-fluoro-2-(((S)-1-methylpyrrolidin-2-yl)methoxy)-4-(piperazin-1-yl)quinazolin-7-yl)-7-fluorobenzo[d]thiazol-2-amine]
1 to 10 µM | 1 to 10 µM | CN1C[C@H](OC(F)F)C[C@H]1COc1nc(NC2CNC2)c2cc(Cl)c(-c3ccc(F)c4sc(N)nc34)c(F)c2n1 [Compound 132]
0.1 to 1 µM | 1 to 10 µM | CN(c1nc(OCC23CCCN2CCC3)nc2c(F)c(-c3ccc(F)c4sc(N)nc34)c(C(F)(F)F)cc12)[C@H]1CC[C@@H](N)CC1 (atropisomer, axis not shown) [Compound 294]
10 to 30 µM | 10 to 30 µM | CN1CCC[C@H]1COc1nc(NC2CNC2)c2cnc(-c3ccc(F)c4sc(N)nc34)c(F)c2n1 [Compound 80]
0.1 to 1 µM | 1 to 10 µM | Nc1nc2c(-c3c(C(F)(F)F)cc4c(N5CCC6(CCNC6)CC5)nc(OCC56CCCN5CCC6)nc4c3F)ccc(F)c2s1 [Compound 308]
1 to 10 µM | 1 to 10 µM | CN(c1nc(OCC23CCCN2CCC3)nc2c(F)c(-c3ccc(F)c4sc(N)nc34)c(C(F)(F)F)cc12)[C@@H]1CCN(C(=O)CN)C1 (atropisomer, axis not shown) [Compound 277]
10 to 30 µM | 10 to 30 µM | COc1cc2c(N3C[C@@H](C)NC[C@@H]3C)nc(OC[C@@]34CCCN3C[C@H](F)C4)nc2c(F)c1-c1ccc(F)c2sc(N)nc12 [Compound 281, 4-(4-((2S,5R)-2,5-dimethylpiperazin-1-yl)-8-fluoro-2-(((2R,7aS)-2-fluorotetrahydro-1H-pyrrolizin-7a(5H)-yl)methoxy)-6-methoxyquinazolin-7-yl)-7-fluorobenzo[d]thiazol-2-amine]

SMILES | IC50 [1] | IC50 [2]
CN(c1nc(OCC23CCCN2CCC3)nc2c(F)c(-c3ccc(F)c4sc(N)nc34)c(C(F)(F)F)cc12)[C@@H]1CCN(C(=O)C2CN2)C1 (some centres unmarked) [Compound 230] | 1 to 10 µM | 1 to 10 µM
